According to ChEMBL document CHEMBL5143638, “Natural aloe emodin-hybridized sulfonamide aminophosphates as novel potential membrane-perturbing and DNA-intercalating agents against Enterococcus faecalis” (Bioorg Med Chem Lett, 2022):
In brackets after ≈: the same amount, converted by molar mass.

Tests used:
Format in all cases: functional
Klebsiella pneumoniae [1] = experiment: Antibacterial activity against Klebsiella pneumoniae assessed as inhibition of bacterial growth measured after 24 hrs by CLSI based broth microdilution method
Enterococcus faecalis = experiment: Antibacterial activity against Enterococcus faecalis assessed as inhibition of bacterial growth measured after 24 hrs by CLSI based broth microdilution method
Pseudomonas aeruginosa [2] = experiment: Antibacterial activity against Pseudomonas aeruginosa assessed as inhibition of bacterial growth measured after 24 hrs by CLSI based broth microdilution method
Escherichia coli [3] = experiment: Antibacterial activity against Escherichia coli assessed as inhibition of bacterial growth measured after 24 hrs by CLSI based broth microdilution method
Staphylococcus aureus [4] = experiment: Antibacterial activity against methicillin-resistant Staphylococcus aureus N315 assessed as inhibition of bacterial growth measured after 24 hrs by CLSI based broth microdilution method
Escherichia coli [5] = experiment: Antibacterial activity against Escherichia coli ATCC 25922 assessed as inhibition of bacterial growth measured after 24 hrs by CLSI based broth microdilution method
Staphylococcus aureus [6] = experiment: Antibacterial activity against Staphylococcus aureus assessed as inhibition of bacterial growth measured after 24 hrs by CLSI based broth microdilution method
Pseudomonas aeruginosa [7] = experiment: Antibacterial activity against Pseudomonas aeruginosa ATCC 27853 assessed as inhibition of bacterial growth measured after 24 hrs by CLSI based broth microdilution method
Staphylococcus aureus [8] = experiment: Antibacterial activity against Staphylococcus aureus ATCC 25923 assessed as inhibition of bacterial growth measured after 24 hrs by CLSI based broth microdilution method
Acinetobacter baumannii = experiment: Antibacterial activity against Acinetobacter baumannii assessed as inhibition of bacterial growth measured after 24 hrs by CLSI based broth microdilution method
Klebsiella pneumoniae [9] = experiment: Potency index, ratio of sulfamethoxazole MIC to test compound MIC for antibacterial activity against Klebsiella pneumoniae assessed as inhibition of bacterial growth measured after 24 hrs by CLSI based broth microdilution method
Klebsiella pneumoniae [10] = experiment: Potency index, ratio of aloe emodin MIC to test compound MIC for antibacterial activity against Klebsiella pneumoniae assessed as inhibition of bacterial growth measured after 24 hrs by CLSI based broth microdilution method
Staphylococcus aureus [11] = experiment: Potency index, ratio of sulfamethoxazole MIC to test compound MIC for antibacterial activity against Staphylococcus aureus assessed as inhibition of bacterial growth measured after 24 hrs by CLSI based broth microdilution method
Klebsiella pneumoniae [12] = experiment: Potency index, ratio of norfloxacin MIC to test compound MIC for antibacterial activity against Klebsiella pneumoniae assessed as inhibition of bacterial growth measured after 24 hrs by CLSI based broth microdilution method
Staphylococcus aureus [13] = experiment: Potency index, ratio of sulfamethoxazole MIC to test compound MIC for antibacterial activity against Staphylococcus aureus ATCC 25923 assessed as inhibition of bacterial growth measured after 24 hrs by CLSI based broth microdilution method

Nc1ccc(S(=O)(=O)Nc2nccs2)cc1 [SULFATHIAZOLE]
MIC (Klebsiella pneumoniae [1]): 256 mg/L (≈ 1000 µM)
MIC (Enterococcus faecalis): 64 mg/L (≈ 251 µM)
MIC (Pseudomonas aeruginosa [2]): 64 mg/L (≈ 251 µM)
MIC (Escherichia coli [3]): 64 mg/L (≈ 251 µM)
MIC (Staphylococcus aureus [4]): 128 mg/L (≈ 501 µM)
MIC (Escherichia coli [5]): 64 mg/L (≈ 251 µM)
MIC (Staphylococcus aureus [6]): 128 mg/L (≈ 501 µM)
MIC (Pseudomonas aeruginosa [7]): 64 mg/L (≈ 251 µM)
MIC (Staphylococcus aureus [8]): 64 mg/L (≈ 251 µM)
MIC (Acinetobacter baumannii): 32 mg/L (≈ 125 µM)

CCOP(=O)(OCC)C(Nc1ccc(S(=O)(=O)Nc2cc(C)on2)cc1)c1cc(O)c2c(c1)C(=O)c1cccc(O)c1C2=O (stereo not given)
Ratio (Klebsiella pneumoniae [9]): 4
MIC (Klebsiella pneumoniae [1]): 2 mg/L (≈ 3.12 µM)
MIC (Enterococcus faecalis): 256 mg/L (≈ 399 µM)
MIC (Pseudomonas aeruginosa [2]): 32 mg/L (≈ 49.9 µM)
Ratio (Klebsiella pneumoniae [10]): 32
MIC (Escherichia coli [3]): 64 mg/L (≈ 99.8 µM)
Ratio (Staphylococcus aureus [11]): 16
Ratio (Klebsiella pneumoniae [12]): 2
MIC (Staphylococcus aureus [4]): 64 mg/L (≈ 99.8 µM)
Ratio (Staphylococcus aureus [13]): 64
MIC (Escherichia coli [5]): 32 mg/L (≈ 49.9 µM)
MIC (Staphylococcus aureus [6]): 0.5 mg/L (≈ 0.779 µM)
MIC (Pseudomonas aeruginosa [7]): 32 mg/L (≈ 49.9 µM)
MIC (Staphylococcus aureus [8]): 0.5 mg/L (≈ 0.779 µM)
MIC (Acinetobacter baumannii): 64 mg/L (≈ 99.8 µM)

O=C1c2cccc(O)c2C(=O)c2c(O)cc(C(Nc3ccc(S(=O)(=O)Nc4ncccn4)cc3)P(=O)(Oc3ccccc3)Oc3ccccc3)cc21 (stereo not given)
MIC (Klebsiella pneumoniae [1]): 128 mg/L (≈ 174 µM)
MIC (Enterococcus faecalis): 64 mg/L (≈ 87.1 µM)
MIC (Pseudomonas aeruginosa [2]): 128 mg/L (≈ 174 µM)
MIC (Escherichia coli [3]): 64 mg/L (≈ 87.1 µM)
MIC (Staphylococcus aureus [4]): 64 mg/L (≈ 87.1 µM)
MIC (Escherichia coli [5]): 32 mg/L (≈ 43.6 µM)
MIC (Staphylococcus aureus [6]): 32 mg/L (≈ 43.6 µM)
MIC (Pseudomonas aeruginosa [7]): 64 mg/L (≈ 87.1 µM)
MIC (Staphylococcus aureus [8]): 256 mg/L (≈ 348 µM)
MIC (Acinetobacter baumannii): 64 mg/L (≈ 87.1 µM)

CCOP(=O)(OCC)C(Nc1ccc(S(=O)(=O)Nc2onc(C)c2C)cc1)c1cc(O)c2c(c1)C(=O)c1cccc(O)c1C2=O (stereo not given)
MIC (Klebsiella pneumoniae [1]): 256 mg/L (≈ 390 µM)
MIC (Enterococcus faecalis): 256 mg/L (≈ 390 µM)
MIC (Pseudomonas aeruginosa [2]): 256 mg/L (≈ 390 µM)
MIC (Escherichia coli [3]): 256 mg/L (≈ 390 µM)
MIC (Staphylococcus aureus [4]): 16 mg/L (≈ 24.4 µM)
MIC (Escherichia coli [5]): 256 mg/L (≈ 390 µM)
MIC (Staphylococcus aureus [6]): 256 mg/L (≈ 390 µM)
MIC (Pseudomonas aeruginosa [7]): 256 mg/L (≈ 390 µM)
MIC (Staphylococcus aureus [8]): 256 mg/L (≈ 390 µM)
MIC (Acinetobacter baumannii): 256 mg/L (≈ 390 µM)

O=C1c2cccc(O)c2C(=O)c2c(O)cc(C(Nc3ccc(S(=O)(=O)Nc4nccs4)cc3)P(=O)(Oc3ccccc3)Oc3ccccc3)cc21 (stereo not given)
MIC (Klebsiella pneumoniae [1]): 128 mg/L (≈ 173 µM)
MIC (Enterococcus faecalis): 64 mg/L (≈ 86.5 µM)
MIC (Pseudomonas aeruginosa [2]): 32 mg/L (≈ 43.3 µM)
MIC (Escherichia coli [3]): 128 mg/L (≈ 173 µM)
MIC (Staphylococcus aureus [4]): 64 mg/L (≈ 86.5 µM)
MIC (Escherichia coli [5]): 64 mg/L (≈ 86.5 µM)
MIC (Staphylococcus aureus [6]): 64 mg/L (≈ 86.5 µM)
MIC (Pseudomonas aeruginosa [7]): 128 mg/L (≈ 173 µM)
MIC (Staphylococcus aureus [8]): 256 mg/L (≈ 346 µM)
MIC (Acinetobacter baumannii): 64 mg/L (≈ 86.5 µM)

CCCCOP(=O)(OCCCC)C(Nc1ccc(S(=O)(=O)Nc2nccs2)cc1)c1cc(O)c2c(c1)C(=O)c1cccc(O)c1C2=O (stereo not given)
MIC (Klebsiella pneumoniae [1]): 256 mg/L (≈ 366 µM)
MIC (Enterococcus faecalis): 256 mg/L (≈ 366 µM)
MIC (Pseudomonas aeruginosa [2]): 256 mg/L (≈ 366 µM)
MIC (Escherichia coli [3]): 256 mg/L (≈ 366 µM)
MIC (Staphylococcus aureus [4]): 256 mg/L (≈ 366 µM)
MIC (Escherichia coli [5]): 256 mg/L (≈ 366 µM)
MIC (Staphylococcus aureus [6]): 256 mg/L (≈ 366 µM)
MIC (Pseudomonas aeruginosa [7]): 256 mg/L (≈ 366 µM)
MIC (Staphylococcus aureus [8]): 256 mg/L (≈ 366 µM)
MIC (Acinetobacter baumannii): 256 mg/L (≈ 366 µM)

COP(=O)(OC)C(Nc1ccc(S(=O)(=O)Nc2nccs2)cc1)c1cc(O)c2c(c1)C(=O)c1cccc(O)c1C2=O (stereo not given)
MIC (Klebsiella pneumoniae [1]): 2 mg/L (≈ 3.25 µM)
MIC (Enterococcus faecalis): 32 mg/L (≈ 52 µM)
MIC (Pseudomonas aeruginosa [2]): 16 mg/L (≈ 26 µM)
MIC (Escherichia coli [3]): 1 mg/L (≈ 1.62 µM)
MIC (Staphylococcus aureus [4]): 64 mg/L (≈ 104 µM)
MIC (Escherichia coli [5]): 64 mg/L (≈ 104 µM)
MIC (Staphylococcus aureus [6]): 8 mg/L (≈ 13 µM)
MIC (Pseudomonas aeruginosa [7]): 64 mg/L (≈ 104 µM)
MIC (Staphylococcus aureus [8]): 32 mg/L (≈ 52 µM)
MIC (Acinetobacter baumannii): 8 mg/L (≈ 13 µM)

NS(=O)(=O)c1ccc(NC(c2cc(O)c3c(c2)C(=O)c2cccc(O)c2C3=O)P(=O)(Oc2ccccc2)Oc2ccccc2)cc1 (stereo not given)
MIC (Klebsiella pneumoniae [1]): 128 mg/L (≈ 195 µM)
MIC (Enterococcus faecalis): 32 mg/L (≈ 48.7 µM)
MIC (Pseudomonas aeruginosa [2]): 128 mg/L (≈ 195 µM)
MIC (Escherichia coli [3]): 64 mg/L (≈ 97.5 µM)
MIC (Staphylococcus aureus [4]): 16 mg/L (≈ 24.4 µM)
MIC (Escherichia coli [5]): 32 mg/L (≈ 48.7 µM)
MIC (Staphylococcus aureus [6]): 64 mg/L (≈ 97.5 µM)
MIC (Pseudomonas aeruginosa [7]): 32 mg/L (≈ 48.7 µM)
MIC (Staphylococcus aureus [8]): 256 mg/L (≈ 390 µM)
MIC (Acinetobacter baumannii): 16 mg/L (≈ 24.4 µM)

COP(=O)(OC)C(Nc1ccc(S(=O)(=O)Nc2cc(C)on2)cc1)c1cc(O)c2c(c1)C(=O)c1cccc(O)c1C2=O (stereo not given)
MIC (Klebsiella pneumoniae [1]): 32 mg/L (≈ 52.2 µM)
MIC (Enterococcus faecalis): 64 mg/L (≈ 104 µM)
MIC (Pseudomonas aeruginosa [2]): 16 mg/L (≈ 26.1 µM)
MIC (Escherichia coli [3]): 16 mg/L (≈ 26.1 µM)
MIC (Staphylococcus aureus [4]): 128 mg/L (≈ 209 µM)
MIC (Escherichia coli [5]): 64 mg/L (≈ 104 µM)
MIC (Staphylococcus aureus [6]): 8 mg/L (≈ 13 µM)
MIC (Pseudomonas aeruginosa [7]): 64 mg/L (≈ 104 µM)
MIC (Staphylococcus aureus [8]): 0.5 mg/L (≈ 0.815 µM)
MIC (Acinetobacter baumannii): 128 mg/L (≈ 209 µM)

Cc1cc(NS(=O)(=O)c2ccc(NC(c3cc(O)c4c(c3)C(=O)c3cccc(O)c3C4=O)P(=O)(Oc3ccccc3)Oc3ccccc3)cc2)no1 (stereo not given)
MIC (Klebsiella pneumoniae [1]): 128 mg/L (≈ 174 µM)
MIC (Enterococcus faecalis): 64 mg/L (≈ 86.8 µM)
MIC (Pseudomonas aeruginosa [2]): 64 mg/L (≈ 86.8 µM)
MIC (Escherichia coli [3]): 64 mg/L (≈ 86.8 µM)
MIC (Staphylococcus aureus [4]): 64 mg/L (≈ 86.8 µM)
MIC (Escherichia coli [5]): 32 mg/L (≈ 43.4 µM)
MIC (Staphylococcus aureus [6]): 64 mg/L (≈ 86.8 µM)
MIC (Pseudomonas aeruginosa [7]): 256 mg/L (≈ 347 µM)
MIC (Staphylococcus aureus [8]): 256 mg/L (≈ 347 µM)
MIC (Acinetobacter baumannii): 64 mg/L (≈ 86.8 µM)

CCn1cc(C(=O)O)c(=O)c2cc(F)c(N3CCNCC3)cc21 [NORFLOXACIN]
MIC (Klebsiella pneumoniae [1]): 4 mg/L (≈ 12.5 µM)
MIC (Enterococcus faecalis): 4 mg/L (≈ 12.5 µM)
MIC (Pseudomonas aeruginosa [2]): 2 mg/L (≈ 6.26 µM)
MIC (Escherichia coli [3]): 8 mg/L (≈ 25.1 µM)
MIC (Staphylococcus aureus [4]): 8 mg/L (≈ 25.1 µM)
MIC (Escherichia coli [5]): 4 mg/L (≈ 12.5 µM)
MIC (Staphylococcus aureus [6]): 8 mg/L (≈ 25.1 µM)
MIC (Pseudomonas aeruginosa [7]): 2 mg/L (≈ 6.26 µM)
MIC (Staphylococcus aureus [8]): 4 mg/L (≈ 12.5 µM)
MIC (Acinetobacter baumannii): 8 mg/L (≈ 25.1 µM)

COP(=O)(OC)C(Nc1ccc(S(N)(=O)=O)cc1)c1cc(O)c2c(c1)C(=O)c1cccc(O)c1C2=O (stereo not given)
MIC (Klebsiella pneumoniae [1]): 128 mg/L (≈ 240 µM)
MIC (Enterococcus faecalis): 0.25 mg/L (≈ 0.47 µM)
MIC (Pseudomonas aeruginosa [2]): 64 mg/L (≈ 120 µM)
MIC (Escherichia coli [3]): 2 mg/L (≈ 3.76 µM)
MIC (Staphylococcus aureus [4]): 16 mg/L (≈ 30 µM)
MIC (Escherichia coli [5]): 8 mg/L (≈ 15 µM)
MIC (Staphylococcus aureus [6]): 32 mg/L (≈ 60.1 µM)
MIC (Pseudomonas aeruginosa [7]): 32 mg/L (≈ 60.1 µM)
MIC (Staphylococcus aureus [8]): 128 mg/L (≈ 240 µM)
MIC (Acinetobacter baumannii): 0.5 mg/L (≈ 0.939 µM)
